Measured values: ChEMBL document CHEMBL2375330, “Synthesis of pyrazole encompassing 2-pyridone derivatives as antibacterial agents” (Bioorg Med Chem Lett, 2013)
≈ marks a conversion by molar mass, not a printed value.

Experiments:
HeLa = experiment: Cytotoxicity against human HeLa cells by MTT assay; assay type: cell-based
Staphylococcus aureus = experiment: Antibacterial activity against Staphylococcus aureus MTCC 96 by broth dilution method; assay type: functional
Pseudomonas aeruginosa = experiment: microbe, parasite or virus in culture; assay type: functional; details: MTCC 1688
Description: Antibacterial activity against Pseudomonas aeruginosa MTCC 1688 by broth dilution method

Escherichia coli = experiment: microbe, parasite or virus in culture; assay type: functional; details: MTCC 443
Description: Antibacterial activity against Escherichia coli MTCC 443 by broth dilution method

Streptococcus pyogenes = experiment: microbe, parasite or virus in culture; assay type: functional; details: MTCC 442
Description: Antibacterial activity against Streptococcus pyogenes MTCC 442 by broth dilution method

NIH3T3 = experiment: Cytotoxicity against mouse NIH/3T3 cells by MTT assay; assay type: cell-based

Structure (SMILES)	MIC (Staphylococcus aureus)	MIC (Pseudomonas aeruginosa)	MIC (Escherichia coli)	MIC (Streptococcus pyogenes)	IC50 (HeLa)	IC50 (NIH3T3)
COc1ccc(-c2c(C#N)c(N)n(/N=C/c3cn(-c4ccccc4)nc3-c3ccccc3)c(=O)c2C#N)cc1	500 µg/mL (≈ 977 µM)	500 µg/mL (≈ 977 µM)	500 µg/mL (≈ 977 µM)	250 µg/mL (≈ 489 µM)	> 200 µg/mL	50 µg/mL (≈ 97.7 µM)
N#Cc1c(-c2ccccc2C(F)(F)F)c(C#N)c(=O)n(/N=C/c2cn(-c3ccccc3)nc2-c2ccccc2)c1N	100 µg/mL (≈ 182 µM)	250 µg/mL (≈ 455 µM)	100 µg/mL (≈ 182 µM)	250 µg/mL (≈ 455 µM)	> 200 µg/mL	56 µg/mL (≈ 102 µM)
N#Cc1c(-c2cccc([N+](=O)[O-])c2)c(C#N)c(=O)n(/N=C/c2cn(-c3ccccc3)nc2-c2ccccc2)c1N	250 µg/mL (≈ 475 µM)	100 µg/mL (≈ 190 µM)	100 µg/mL (≈ 190 µM)	50 µg/mL (≈ 95 µM)	> 200 µg/mL	124 µg/mL (≈ 236 µM)
COc1cc(-c2c(C#N)c(N)n(/N=C/c3cn(-c4ccccc4)nc3-c3ccccc3)c(=O)c2C#N)cc(OC)c1OC	500 µg/mL (≈ 875 µM)	250 µg/mL (≈ 437 µM)	500 µg/mL (≈ 875 µM)	250 µg/mL (≈ 437 µM)	> 200 µg/mL	64 µg/mL (≈ 112 µM)
O=C(O)c1cn(C2CC2)c2cc(N3CCNCC3)c(F)cc2c1=O [CIPROFLOXACIN]	50 µg/mL (≈ 151 µM)		25 µg/mL (≈ 75.4 µM)	50 µg/mL (≈ 151 µM)		
N#Cc1c(-c2cccc(Cl)c2)c(C#N)c(=O)n(/N=C/c2cn(-c3ccccc3)nc2-c2ccccc2)c1N	500 µg/mL (≈ 969 µM)	250 µg/mL (≈ 485 µM)	50 µg/mL (≈ 96.9 µM)	100 µg/mL (≈ 194 µM)	> 200 µg/mL	52 µg/mL (≈ 101 µM)
N#Cc1c(-c2ccccc2O)c(C#N)c(=O)n(/N=C/c2cn(-c3ccccc3)nc2-c2ccccc2)c1N	500 µg/mL (≈ 1000 µM)	500 µg/mL (≈ 1000 µM)	500 µg/mL (≈ 1000 µM)	250 µg/mL (≈ 502 µM)	> 200 µg/mL	162 µg/mL (≈ 326 µM)
N#Cc1c(-c2ccc(Br)cc2)c(C#N)c(=O)n(/N=C/c2cn(-c3ccccc3)nc2-c2ccccc2)c1N	12.5 µg/mL (≈ 22.3 µM)	100 µg/mL (≈ 178 µM)	500 µg/mL (≈ 892 µM)	100 µg/mL (≈ 178 µM)	> 200 µg/mL	> 200 µg/mL
N#Cc1c(-c2ccc([N+](=O)[O-])cc2)c(C#N)c(=O)n(/N=C/c2cn(-c3ccccc3)nc2-c2ccccc2)c1N	50 µg/mL (≈ 95 µM)	25 µg/mL (≈ 47.5 µM)	12.5 µg/mL (≈ 23.7 µM)	12.5 µg/mL (≈ 23.7 µM)	> 200 µg/mL	84 µg/mL (≈ 160 µM)
N#Cc1c(-c2ccc(F)cc2)c(C#N)c(=O)n(/N=C/c2cn(-c3ccccc3)nc2-c2ccccc2)c1N	12.5 µg/mL (≈ 25 µM)	25 µg/mL (≈ 50 µM)	12.5 µg/mL (≈ 25 µM)	100 µg/mL (≈ 200 µM)	> 200 µg/mL	> 200 µg/mL
N#Cc1c(-c2ccc(O)cc2)c(C#N)c(=O)n(/N=C/c2cn(-c3ccccc3)nc2-c2ccccc2)c1N	500 µg/mL (≈ 1000 µM)	500 µg/mL (≈ 1000 µM)	500 µg/mL (≈ 1000 µM)	500 µg/mL (≈ 1000 µM)	> 200 µg/mL	110 µg/mL (≈ 221 µM)
Cc1ccc(-c2c(C#N)c(N)n(/N=C/c3cn(-c4ccccc4)nc3-c3ccccc3)c(=O)c2C#N)cc1	500 µg/mL (≈ 1010 µM)	250 µg/mL (≈ 504 µM)	500 µg/mL (≈ 1010 µM)	250 µg/mL (≈ 504 µM)	> 200 µg/mL	98 µg/mL (≈ 198 µM)
N#Cc1c(-c2ccc(Cl)cc2)c(C#N)c(=O)n(/N=C/c2cn(-c3ccccc3)nc2-c2ccccc2)c1N	100 µg/mL (≈ 194 µM)	500 µg/mL (≈ 969 µM)	500 µg/mL (≈ 969 µM)	12.5 µg/mL (≈ 24.2 µM)	> 200 µg/mL	64 µg/mL (≈ 124 µM)
N#Cc1c(-c2ccc(C(F)(F)F)cc2)c(C#N)c(=O)n(/N=C/c2cn(-c3ccccc3)nc2-c2ccccc2)c1N	25 µg/mL (≈ 45.5 µM)	25 µg/mL (≈ 45.5 µM)	250 µg/mL (≈ 455 µM)	250 µg/mL (≈ 455 µM)	> 200 µg/mL	> 200 µg/mL

The remaining compounds from weak to strong by MIC (Staphylococcus aureus), led by results:

MIC (Staphylococcus aureus)	MIC (Pseudomonas aeruginosa)	MIC (Escherichia coli)	MIC (Streptococcus pyogenes)	Structure (SMILES)	IC50 (HeLa)	IC50 (NIH3T3)
500 µg/mL (≈ 1040 µM)	500 µg/mL (≈ 1040 µM)	250 µg/mL (≈ 519 µM)	500 µg/mL (≈ 1040 µM)	N#Cc1c(-c2ccccc2)c(C#N)c(=O)n(/N=C/c2cn(-c3ccccc3)nc2-c2ccccc2)c1N	> 200 µg/mL	180 µg/mL (≈ 374 µM)
250 µg/mL (≈ 446 µM)	250 µg/mL (≈ 446 µM)	100 µg/mL (≈ 178 µM)	500 µg/mL (≈ 892 µM)	N#Cc1c(-c2cccc(Br)c2)c(C#N)c(=O)n(/N=C/c2cn(-c3ccccc3)nc2-c2ccccc2)c1N	> 200 µg/mL	42 µg/mL (≈ 74.9 µM)
100 µg/mL (≈ 194 µM)	100 µg/mL (≈ 194 µM)	100 µg/mL (≈ 194 µM)	100 µg/mL (≈ 194 µM)	N#Cc1c(-c2ccccc2Cl)c(C#N)c(=O)n(/N=C/c2cn(-c3ccccc3)nc2-c2ccccc2)c1N	> 200 µg/mL	84 µg/mL (≈ 163 µM)
50 µg/mL (≈ 100 µM)	50 µg/mL (≈ 100 µM)	100 µg/mL (≈ 200 µM)	50 µg/mL (≈ 100 µM)	N#Cc1c(-c2cccc(F)c2)c(C#N)c(=O)n(/N=C/c2cn(-c3ccccc3)nc2-c2ccccc2)c1N	> 200 µg/mL	154 µg/mL (≈ 308 µM)
25 µg/mL (≈ 47.5 µM)	100 µg/mL (≈ 190 µM)	25 µg/mL (≈ 47.5 µM)	250 µg/mL (≈ 475 µM)	N#Cc1c(-c2ccccc2[N+](=O)[O-])c(C#N)c(=O)n(/N=C/c2cn(-c3ccccc3)nc2-c2ccccc2)c1N	> 200 µg/mL	> 200 µg/mL
25 µg/mL (≈ 50 µM)	50 µg/mL (≈ 100 µM)	250 µg/mL (≈ 500 µM)	25 µg/mL (≈ 50 µM)	N#Cc1c(-c2ccccc2F)c(C#N)c(=O)n(/N=C/c2cn(-c3ccccc3)nc2-c2ccccc2)c1N	> 200 µg/mL	> 200 µg/mL
12.5 µg/mL (≈ 22.3 µM)	250 µg/mL (≈ 446 µM)	100 µg/mL (≈ 178 µM)	250 µg/mL (≈ 446 µM)	N#Cc1c(-c2ccccc2Br)c(C#N)c(=O)n(/N=C/c2cn(-c3ccccc3)nc2-c2ccccc2)c1N	> 200 µg/mL	174 µg/mL (≈ 310 µM)
